Assay results as given in paper PMC7156458, “Synthetic biology based construction of biological activity-related library of fungal decalin-containing diterpenoid pyrones” (Nature Communications, 2020).

Experiments:
Test in all cases: cells
Design in all cases: species or system JFCR39 human cancer cell lines; JFCR39 panel growth inhibition, sulforhodamine B total protein after 48 h
OVCAR-5 = settings: Homo sapiens, OVCAR-5, 48 h
Summary of the method: (§1)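 Steps: culture JFCR39 cells in RPMI-1640/5% FBS at 37°C, 5% CO2; add compound for 48 h; stain total protein with sulforhodamine B; derive GI50 from duplicate wells. Panel fingerprints were compared against a reference database by COMPARE.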

HBC-5 = settings: HBC5, 48 h
Summary of the method: as §1

MKN-A = settings: 48 h
Summary of the method: as §1

HCT-116 = settings: Homo sapiens, HCT-116, 48 h
Summary of the method: as §1

MKN45 = settings: Homo sapiens, MKN-45, 48 h
Summary of the method: as §1

SF-268 = settings: Homo sapiens, SF-268, 48 h
Summary of the method: as §1

NCI-H226 = settings: Homo sapiens, NCI-H226, 48 h
Summary of the method: as §1

MKN74 = settings: Homo sapiens, MKN-74, 48 h
Summary of the method: as §1

HT-29 = settings: Homo sapiens, HT-29, 48 h
Summary of the method: as §1

NCI-H23 = settings: Homo sapiens, NCI-H23, 48 h
Summary of the method: as §1

OVCAR-3 = settings: Homo sapiens, OVCAR-3, 48 h
Summary of the method: as §1

ACHN = settings: Homo sapiens, ACHN, 48 h
Summary of the method: as §1

MKN1 = settings: Homo sapiens, MKN-1, 48 h
Summary of the method: as §1

NCI-H522 = settings: Homo sapiens, NCI-H522, 48 h
Summary of the method: as §1

DMS114 = settings: Homo sapiens, DMS-114, 48 h
Summary of the method: as §1

SNB-78 = settings: Homo sapiens, SNB-78, 48 h
Summary of the method: as §1

OVCAR-8 = settings: Homo sapiens, OVCAR-8, 48 h
Summary of the method: as §1

PC-3 = settings: Homo sapiens, PC-3, 48 h
Summary of the method: as §1

MKN-B = settings: 48 h
Summary of the method: as §1

LOX-IMVI = settings: Homo sapiens, LOX IMVI, 48 h
Summary of the method: as §1

RXF-631L = settings: RXF-631L, 48 h
Summary of the method: as §1

SMILES: C=C1CC[C@@H]2[C@](C)(CC[C@H]3O[C@H](C=C(C)C)C[C@@]23C)[C@@H]1Cc1c(OC)oc(CO)c(C(=O)OC)c1=O [Compound 21]
- GI50 (OVCAR-5): 16.6 µM
- GI50 (HBC-5): 14.7 µM
- GI50 (MKN-A): 14.3 µM
- GI50 (HCT-116): 15 µM
- GI50 (MKN45): 16.2 µM
- GI50 (SF-268): 19.5 µM
- GI50 (NCI-H226): 18.2 µM
- GI50 (MKN74): 19.8 µM
- GI50 (HT-29): 17.4 µM
- GI50 (NCI-H23): 11.1 µM
- GI50 (OVCAR-3): 12 µM
- GI50 (ACHN): 12.2 µM
- GI50 (MKN1): 18.5 µM
- GI50 (NCI-H522): 8.73 µM
- GI50 (DMS114): 4.93 µM
- GI50 (SNB-78): 18.7 µM
- GI50 (OVCAR-8): 16.7 µM
- GI50 (PC-3): 14.7 µM
- GI50 (MKN-B): 16.8 µM
- GI50 (LOX-IMVI): 15.1 µM
- GI50 (RXF-631L): 17.3 µM
